Data reported in patent US6265611A, “Hydroxymandelic acid amides of phenolic amines” (Haarmann & Reimer GmbH, priority 1999, dated 2001).

Experiments:
[1] = DPPH test, activity as free-radical scavenger; type: biochemical; details: EC = c(test compound)/c(DPPH); DPPH 100 μmol/l in methanol; absorption at 515 nm
Procedure: The activity of the compounds according to Examples 1 to 7 as free-radical scavengers was compared with the conventional free-radical scavenger. For this purpose, the DPPH (1,1-diphenyl-2-picryl-hydrazyl) test for the removal of […] was used.
DPPH was dissolved in methanol to a concentration of 100 μmol/l. A series of dilutions of the illustrative compound, vitamin C, α tocopherol, butylated hydroxytoluene and ferulic acid in methanol were prepared. Methanol was used as the control. 2500 μl of the DPPH solution were mixed with 500 μl of each test solution and the decrease in absorption at 515 nm was read until the decrease was less than 2% per hour. The activity of the test substances as free-radical scavengers was calculated using the following equation:
Activity as free-radical scavenger (%)=100-(absorption of the test
compounds)/ (absorption of the control)×100.

[2] = Activity as antioxidants: accelerated autoxidation of lipids by air (Rancimat); details: AOI = IP(with test solution)/IP(control sample); 0.05% test substance; soybean oil, 100° C., air 20 l/h
Procedure: The activity of the illustrative compounds 1 to 7 as antioxidants was compared with that of traditional antioxidants. The test system used was the accelerated autoxidation of lipids by air with or without antioxidant using the Rancimat apparatus (Rancimat is a registered trade mark of Metrohm AG, Herisau, Switzerland). The illustrative compounds, vitamin C, α-tocopherol, ferulic acid and butylated hydroxytoluene were dissolved in methanol or acetone, and 100 μl of each test solution were added to a 3 g prepared oil sample (soybean oil, purified over alumina type N). In a control sample, only solvent was added. A constant, dry stream of air (20 l/h) was blown through the oil sample, which contained the test solution and was heated to 100° C., and the volatile oxidation product (predominantly short-chain fatty acids such as formic or acetic acid) were collected in a trap containing water. The conductivity of this aqueous solution was continuously measured and recorded. […] The time to the increase is referred to as the induction period (IP). The following equation was used to calculate the antioxidative index (AOI): AOI=IP(with test solution) /IP(control sample)

[3] = Solubility in aqueous media (water/DMSO 95:5); type: physicochemical
Procedure: The aqueous medium used by way, of example, was a mixture of 95 parts by weight of water and 5 parts by weight of DMSO. The compounds to be tested were weighed into a glass vessel, admixed with a defined amount of solvent and treated with ultrasound at room temperature for 5 min.

Structure (SMILES) | EC50 (effective relative concentration at which 50% of the free radical DPPH had been removed) [1] [mol/mol] | antioxidative index (AOI) with 0.05% of test substance [2] | Solubility in a mixture of water (95 parts by weight) and DMSO (5 parts by weight) [3]
Cc1cc(C(C)(C)C)c(O)c(C(C)(C)C)c1 [Butylated hydroxytoluene, reference compound] | 0.240 | 4.77 | 
COc1cc(C(O)C(=O)NCCc2ccc(O)c(O)c2)ccc1O (centres unmarked) [Example 1, N-(3,4-dihydroxyphenethyl)-2-hydroxy-2-(4-hydroxy-3 methoxyphenyl)acetamide] | 0.131 | 13.0 | 5-10 % by weight
O=C(NCCc1ccc(O)c(O)c1)C(O)c1ccc(O)c(O)c1 (centres unmarked) [Example 2, N-(3,4-dihydroxyphenethyl)-2-(3,4-dihydroxyphenyl)-2-hydroxyacetamide] | 0.104 | 16.9 | > 10 % by weight
COc1cc(C(O)C(=O)NCc2ccc(O)c(O)c2)ccc1O (centres unmarked) [Example 3, N-(3,4-dihydroxybenzyl)-2-hydroxy-2-(4-hydroxy-3methoxyphenyl)acetamide] | 0.195 | 9.8 | > 10 % by weight
COc1cc(C(O)C(=O)NCc2cc(O)c(O)c(O)c2)ccc1O (centres unmarked) [Example 4, 2-Hydroxy-2-(4-hydroxy-3-methoxyphenyl)-N-(3,4,5-trihydroxybenzyl)acetamide] | 0.198 | 11.0 | 0.5-1 % by weight
COc1cc(CNC(=O)C(O)c2ccc(O)c(O)c2)ccc1O (centres unmarked) [Example 5, 2-(3,4-Dihydroxyphenyl)-2-hydroxy-N-(4-hydroxy-3 methoxybenzyl)acetamide] | 0.199 | 12.6 | 0.05-0.1 % by weight
O=C(NCc1ccc(O)c(O)c1)C(O)c1ccc(O)c(O)c1 (centres unmarked) [Example 6, N-(3,4-dihydroxybenzyl)-2-(3,4-dihydroxyphenyl)-2-hydroxyacetamide] | 0.069 | 17.5 | 0.1-0.5 % by weight
O=C(NCc1cc(O)c(O)c(O)c1)C(O)c1ccc(O)c(O)c1 (centres unmarked) [Example 7, 2-(3,4-Dihydroxyphenyl)-2-hydroxy-N-(3,4,5-trihydroxybenzyl)acetamide] | 0.085 | 16.4 | 0.5-1 % by weight
COc1cc(/C=C/C(=O)O)ccc1O [Ferulic acid, reference compound] | 0.350 | 1.79 | 
O=C1O[C@H]([C@@H](O)CO)C(O)=C1O [Vitamin C, ascorbic acid, reference compound] | 0.270 | 1.17 | 
Cc1c(C)c2c(c(C)c1O)CCC(C)(CCCC(C)CCCC(C)CCCC(C)C)O2 (stereo not drawn) [α-Tocopherol, reference compound] | 0.250 | 5.05 | 
